Assay results reported in patent US7569550B2, “14 and 15 membered ring compounds” (Glaxo Group Limited, priority 2003, dated 2009).
Where a name gives a salt, the structure may show the parent alone.

Columns and labels:
Assay in all cases: MIC, standard broth dilution method in microtitre
Assay type in all cases: cell-based
S. pyogenes 3565 = conditions: Streptococcus pyogenes
Method: (§1) Using a standard broth dilution method in microtitre, compounds were tested for antibacterial activity. The compounds in the above examples gave minimum inhibitory concentrations (MICs) less than 1 microgram per millilitre against erythromycin-sensitive and erythromycin-resistant strains of Streptococcus pneumoniae and Streptococcus pyogenes.
(§2) In addition, the MIC (μg/ml) of test compounds against various organisms was determined including:
(§3) S. aureus Smith ATCC 13709, S. pneumoniae SP030, S. pyogenes 3565, E. faecalis ATCC 29212, H. influenzae ATCC 49247, M. catarrhalis ATCC 23246.

H. influenzae ATCC 49247 = conditions: Haemophilus influenzae, ATCC49247; H. influenzae ATCC 49247; read-out: MIC
Method: as §1, §2, §3

[1] = tested on: M. catarrhalis ATCC 23246; conditions: Moraxella catarrhalis, ATCC23246
Method: as §1, §2, §3

[2] = tested on: S. aureus Smith ATCC 13709; conditions: Staphylococcus aureus, ATCC13709
Method: as §1, §2, §3

E. faecalis ATCC 29212 = conditions: Enterococcus faecalis, ATCC29212
Method: as §1, §2, §3

S. pneumoniae SP030 = conditions: Streptococcus pneumoniae
Method: as §1, §2, §3

[3] = tested on: erythromycin resistant strains of Streptococcus pyogenes
Method: as §1

[4] = tested on: erythromycin resistant strains of Streptococcus pneumoniae
Method: as §1

| Compound | MIC (S. pyogenes 3565) [µg/mL] | MIC (H. influenzae ATCC 49247) [µg/mL] | MIC [1] [µg/mL] | MIC [2] [µg/mL] | MIC (E. faecalis ATCC 29212) [µg/mL] | MIC (S. pneumoniae SP030) [µg/mL] | MIC [3] [µg/mL] | MIC [4] [µg/mL] |
| --- | --- | --- | --- | --- | --- | --- | --- | --- |
| CC[C@@H]1OC(=O)[C@H](C)[C@H](O[C@@H]2C[C@](C)(OC)[C@H](OCCCNCCOc3cc4c5c(c3)c(=O)c(C(=O)O)cn5CCC4)[C@H](C)O2)[C@@H](C)[C@H](O[C@H]2O[C@@H](C)C[C@@H](N(C)C)[C@H]2O)[C@](C)(OC)C[C@H](C)C(=O)[C@H](C)[C@H]2OC(=O)O[C@@]12C [Example 6, 4″-O-{3-[2-(2-Carboxy-1-oxo-6,7-dihydro-1H,5H-pyrido[3,2,1-ij]quinoline-9-yloxy)-ethylamino]-propyl}-6-O-methyl-erythromycin A 11,12-carbonate bisformate] | ≤ 1 | ≤ 4 | ≤ 4 | ≤ 1 | ≤ 1 | ≤ 1 | ≤ 1 | ≤ 1 |
| CC[C@@H]1OC(=O)[C@H](C)[C@H](O[C@@H]2C[C@](C)(OC)[C@H](OCCNCCNc3nc4c(cc3F)c(=O)c(C(=O)O)cn4CC)[C@H](C)O2)[C@@H](C)[C@H](O[C@H]2O[C@@H](C)C[C@@H](N(C)C)[C@H]2O)[C@](C)(OC)C[C@H](C)C(=O)[C@H](C)[C@H](O)[C@@]1(C)O [Example 18, 4″-O-{2-[2-(3-Carboxy-1-ethyl-6-fluoro-4-oxo-1,4-dihydro-[1,8]naphthyridin-7-ylamino)ethyl]-amino}-ethyl}-6-O-methyl-erythromycin A monoformate] | ≤ 1 | ≤ 4 | ≤ 4 | ≤ 1 | ≤ 1 | ≤ 1 | ≤ 1 | ≤ 1 |
| CC[C@@H]1OC(=O)[C@H](C)[C@H](O[C@@H]2C[C@](C)(OC)[C@H](OCCN(C)CCNc3nc4c(cc3F)c(=O)c(C(=O)O)cn4CC)[C@H](C)O2)[C@@H](C)[C@H](O[C@H]2O[C@@H](C)C[C@@H](N(C)C)[C@H]2O)[C@](C)(OC)C[C@H](C)C(=O)[C@H](C)[C@H](O)[C@@]1(C)O [Example 19] | ≤ 1 | ≤ 4 | ≤ 4 | ≤ 1 | ≤ 1 | ≤ 1 | ≤ 1 | ≤ 1 |
| CC[C@@H]1OC(=O)[C@H](C)[C@H](O[C@@H]2C[C@](C)(OC)[C@H](OCCCN(C)CCCc3ccc4c(c3)c(=O)c(C(=O)O)cn4CC)[C@H](C)O2)[C@@H](C)[C@H](O[C@H]2O[C@@H](C)C[C@@H](N(C)C)[C@H]2O)[C@](C)(OC)C[C@H](C)C(=O)[C@H](C)[C@H]2OC(=O)O[C@@]12C [Example 13, 4″-O-(3-{[3-(3-Carboxy-1-ethyl-4-oxo-1,4-dihydro-quinolin-6-yl)propyl]-methylamino}-propyl)-6-O-methyl-erythromycin A 11,12-carbonate formate] | ≤ 1 | ≤ 4 | ≤ 4 | ≤ 1 | ≤ 1 | ≤ 1 | ≤ 1 | ≤ 1 |

Next, values leading:

| MIC (S. pyogenes 3565) [µg/mL] | MIC (H. influenzae ATCC 49247) [µg/mL] | MIC [1] [µg/mL] | MIC [2] [µg/mL] | MIC (E. faecalis ATCC 29212) [µg/mL] | MIC (S. pneumoniae SP030) [µg/mL] | MIC [3] [µg/mL] | MIC [4] [µg/mL] | Compound |
| --- | --- | --- | --- | --- | --- | --- | --- | --- |
| ≤ 1 | ≤ 4 | ≤ 4 | ≤ 1 | ≤ 1 | ≤ 1 | ≤ 1 | ≤ 1 | CC[C@H]1OC(=O)[C@H](C)[C@@H](O[C@H]2C[C@@](C)(OC)[C@@H](OCCCN(C)CCCc3cnc4c(c3)c(=O)c(C(=O)O)cn4CC)[C@H](C)O2)[C@H](C)[C@@H](O[C@@H]2O[C@H](C)C[C@H](N(C)C)[C@H]2O)[C@](C)(OC)C[C@@H](C)C(=O)[C@@H](C)[C@H]2NC(=O)O[C@@]21C [Example 30, 4″-O-{3-[[3-(3-Carboxy-1-ethyl-4-oxo-1,4-dihydro-6-[1,8]naphthryidinyl)-propyl]-methylamino]-propyl}-6-O-methyl-11-desoxy-11-(R)-amino-erythromycin A 11,12-carbamate] |
| ≤ 1 | ≤ 4 | ≤ 4 | ≤ 1 | ≤ 1 | ≤ 1 | ≤ 1 | ≤ 1 | CC[C@H]1OC(=O)[C@H](C)[C@@H](O[C@H]2C[C@@](C)(OC)[C@@H](OCCCN(C)CCSc3ccc4c(c3)c(=O)c(C(=O)O)cn4CC)[C@H](C)O2)[C@H](C)[C@@H](O[C@@H]2O[C@H](C)C[C@H](N(C)C)[C@H]2O)[C@](C)(OC)C[C@@H](C)C(=O)[C@@H](C)[C@H]2NC(=O)O[C@@]21C [Example 32, 4″-O-{3-[[2-(3-Carboxy-1-ethyl-4-oxo-1,4-dihydro-quinolin-6-ylsulfanyl)-ethyl]-methylamino]-propyl}-6-O-methyl-11-desoxy-11-(R)-amino-erythromycin A 11,12-carbamate] |
